Reference: patent US11713339B2, “Macrocyclization of peptidomimetics” (UNIVERSITY OF WARWICK, priority 2018, dated 2023)
Where “and” joins values, the source holds several entries; their conditions need not be identical. Identical values can stand only once. Like-named read-outs stand apart in the source and are kept apart here.

Experiments:
[1] = target: T1, porcine Aminopeptidase N (APN) (Sus scrofa, UniProt P15145); test: in vitro inhibition assay of aminopeptidase N (spectrophotometric, L-leucine-p-nitroanilide substrate); type: biochemical; conditions: microsomal aminopeptidase from porcine kidney (pAPN), L-leucine-p-nitroanilide 250 μM, PBS pH 7.2, 37° C., 1 hour, UV 405 nm
T1 construct: microsomal aminopeptidase from porcine kidney (pAPN, Sigma Aldrich) (18 units/mg protein); purchased Sigma Aldrich; host or cells: porcine kidney (tissue-derived enzyme preparation)
T1 sequence (P15145 1-963): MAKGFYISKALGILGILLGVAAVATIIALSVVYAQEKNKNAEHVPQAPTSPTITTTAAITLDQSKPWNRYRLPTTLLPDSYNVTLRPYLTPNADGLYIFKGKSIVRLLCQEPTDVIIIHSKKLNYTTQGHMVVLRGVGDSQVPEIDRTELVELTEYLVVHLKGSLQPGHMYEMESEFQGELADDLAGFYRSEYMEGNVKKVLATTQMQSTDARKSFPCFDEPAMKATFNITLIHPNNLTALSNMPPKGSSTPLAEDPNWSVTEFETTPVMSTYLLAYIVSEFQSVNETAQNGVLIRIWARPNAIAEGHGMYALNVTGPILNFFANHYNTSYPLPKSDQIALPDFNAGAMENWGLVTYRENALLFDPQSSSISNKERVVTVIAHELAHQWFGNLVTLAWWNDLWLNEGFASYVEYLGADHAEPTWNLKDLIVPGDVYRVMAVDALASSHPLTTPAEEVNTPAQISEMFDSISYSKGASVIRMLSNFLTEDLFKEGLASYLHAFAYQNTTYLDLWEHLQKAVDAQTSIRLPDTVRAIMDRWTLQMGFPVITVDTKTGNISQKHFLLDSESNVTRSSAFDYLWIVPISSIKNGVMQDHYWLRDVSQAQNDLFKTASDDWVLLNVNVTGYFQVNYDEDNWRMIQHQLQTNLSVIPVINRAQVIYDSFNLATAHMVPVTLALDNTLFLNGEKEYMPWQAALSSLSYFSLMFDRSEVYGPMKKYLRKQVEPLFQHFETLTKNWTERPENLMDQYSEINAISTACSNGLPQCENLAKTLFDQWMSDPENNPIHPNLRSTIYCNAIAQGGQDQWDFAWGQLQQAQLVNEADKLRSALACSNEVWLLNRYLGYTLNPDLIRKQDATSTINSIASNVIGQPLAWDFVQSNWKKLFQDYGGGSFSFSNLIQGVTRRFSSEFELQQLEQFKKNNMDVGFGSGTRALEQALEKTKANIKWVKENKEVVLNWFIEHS
Procedure: IC50 values were calculated by following the formation of p-nitroaniline. Formation of p-nitroaniline was monitored by measurement of the UV absorption at 405 nm on a Hidex Sense plate reader. The assay was performed in a 96-well plate in PBS buffer (pH 7.2, 1.47 mM KH2PO4, 7.8 mM Na2HPO4, 137 mM NaCl, 2.7 mM KCl, 1.8 mM CaCl2, 1.8 mM MgCl2) at 37° C. with a total volume of 100 μL. […] The peptides were incubated with the enzyme (1.0 μg/mL) for 5 min. before a solution of L-leucine-p-nitroanilide was added with a final concentration of 250 μM. The plate was incubated at 37° C. for 1 hour before the p-nitroaniline was detected. […] For the calculation of the IC50 values log of the concentration was plotted against the UV absorption in GraphPad Prism 5 using nonlinear regression (variable slope (four parameters) with interpolation) for analysis.

[2] = amide bond, DMF, 25.0 °C
[3] = 25.0 °C
[4] = 25.0 °C; remark: listed apart in the source
[5] = amide bond, 12-membered ring, DEPBT/DIPEA, DMF, 1.0 mM

N=C(N)NCCC[C@@H]1NC2(CNC(=O)[C@H](CC(N)=O)NC(=O)[C@@H](N)CSSC[C@@H](C(=O)O)NC1=O)COC2 [Compound 12, Cyclo(H-CVs-Asn-GOx-Arg-CVs-OH)]
IC50 [1]: 175 µM

CC(C)C[C@@H]1NC(=O)[C@H](Cc2ccc(O)cc2)NC(=O)[C@H](C)NC2(CNC(=O)[C@H](C)NC1=O)COC2 [Cyclo(Ala-GOx-Ala-Tyr-Leu)]
ring closure, yield of all isomers ([2]; from CC(C)C[C@H](NC(=O)[C@H](Cc1ccc(O)cc1)NC(=O)[C@H](C)NC1(CNC(=O)[C@H](C)N)COC1)C(=O)O, DEPBT/DIPEA, 1.0 mM, 24.0 h): 54%

CC(C)C[C@@H]1NC(=O)[C@H](Cc2ccc(O)cc2)NC(=O)[C@H](C)NC(=O)CNC(=O)[C@H](C)NC1=O [Cyclo(Ala-Gly-Ala-Tyr-Leu)]
ring closure, yield of all isomers ([2]; from CC(C)C[C@H](NC(=O)[C@H](Cc1ccc(O)cc1)NC(=O)[C@H](C)NC(=O)CNC(=O)[C@H](C)N)C(=O)O, DEPBT/DIPEA, 1.0 mM, 24.0 h): 42%

CC(C)C[C@@H]1NC(=O)[C@H](Cc2cn(C(=O)OC(C)(C)C)c3ccccc23)NC(=O)CNC2(CNC1=O)COC2 [Cyclo(Leu-GOx-Gly-Trp(Boc))]
ring closure, yield of all isomers ([2]; from CC(C)C[C@H](N)C(=O)NCC1(NCC(=O)N[C@@H](Cc2cn(C(=O)OC(C)(C)C)c3ccccc23)C(=O)O)COC1, DEPBT, 1.0 mM, 64.0 h, 6 steps): 39%

CC(C)C[C@@H]1NC(=O)[C@H](Cc2c[nH]c3ccccc23)NC(=O)CNC2(COC2)[C@H](C)NC1=O [Cyclo(Trp-Leu-AOx-Gly)]
ring closure, yield of all isomers ([2]; from CC(C)C[C@H](NC(=O)[C@@H](N)Cc1c[nH]c2ccccc12)C(=O)N[C@@H](C)C1(NCC(=O)O)COC1, DEPBT, 1.0 mM, 48.0 h): 50%

CC(C)C[C@@H]1NC(=O)[C@H](Cc2c[nH]c3ccccc23)NC(=O)CNC2(CNC1=O)COC2 [Cyclo(Trp-Leu-GOx-Gly)]
ring closure, yield of all isomers ([2]; from CC(C)C[C@H](NC(=O)[C@@H](N)Cc1c[nH]c2ccccc12)C(=O)NCC1(NCC(=O)O)COC1, DEPBT/DIPEA, 1.0 mM, 48.0 h): 65%

CC(C)C[C@@H]1NC(=O)[C@H](Cc2c[nH]c3ccccc23)NC(=O)CNC(=O)CNC1=O [Cyclo(Trp-Leu-Gly-Gly)]
ring closure, yield of all isomers ([2]; from CC(C)C[C@H](NC(=O)[C@@H](N)Cc1c[nH]c2ccccc12)C(=O)NCC(=O)NCC(=O)O, PyBOP/DIPEA, 1.0 mM, 48.0 h): 15%

CC(C)C[C@@H]1NC(=O)[C@H](Cc2ccccc2)NC(=O)[C@H]([C@@H](C)OC(C)(C)C)NC2(CNC(=O)[C@H](C(C)C)NC(=O)[C@H](Cc3ccc(OC(C)(C)C)cc3)NC1=O)CN(C(=O)OC(C)(C)C)C2 [Cyclo-(Leu-Tyr(^tBu)-Val-GAz(Boc)-Thr(^tBu)-Phe)]
ring closure, yield of all isomers ([2]; from CC(C)C[C@H](N)C(=O)N[C@@H](Cc1ccc(OC(C)(C)C)cc1)C(=O)N[C@H](C(=O)NCC1(N[C@H](C(=O)N[C@@H](Cc2ccccc2)C(=O)O)[C@@H](C)OC(C)(C)C)CN(C(=O)OC(C)(C)C)C1)C(C)C, DEPBT, 5.0 mM, 48.0 h): 57%

C[C@@H](OC(C)(C)C)[C@@H]1NC2(CNC(=O)[C@H](CCC(=O)OC(C)(C)C)NC(=O)[C@H](Cc3ccccc3)NC(=O)CNC1=O)CN(C(=O)OC(C)(C)C)C2 [Cyclo-(Phe-Glu(^tBu)-GAz(Boc)-Thr(^tBu)-Gly)]
ring closure, yield of all isomers ([2]; from C[C@@H](OC(C)(C)C)[C@H](NC1(CNC(=O)[C@H](CCC(=O)OC(C)(C)C)NC(=O)[C@@H](N)Cc2ccccc2)CN(C(=O)OC(C)(C)C)C1)C(=O)NCC(=O)O, DEPBT, 5.0 mM, 68.0 h): 73%

Cyclo(Ala-GOx-Ala-Tyr-Leu)
ring closure, isolated yield ([3]; amide bond, 15-membered ring, DEPBT/DIEA, DMF, 1.0 mM): 54%

Cyclo(Ala-Gly-Ala-Tyr-Leu)
ring closure, isolated yield ([3]; amide bond, 15-membered ring, DEPBT/DIPEA, DMF, 1.0 mM): 42%

Cyclo(Ala-Trp-GOx-Gly-Leu)
ring closure, yield after HPLC ([4]; amide bond, 15-membered ring, DEPBT/DIPEA, DMF, 1.0 mM, with chain assembly): 13%

Cyclo(Boc-Cys-GOx-Cys-OtBu)
ring closure, isolated yield ([3]; disulfide bond, 11-membered ring, I2, MeOH, 5.0 mM): 64%

Cyclo(H-CVs-Asn-GOx-Arg-CVs-OH)
ring closure, yield after HPLC ([4]; disulfide bond, 17-membered ring, I2, MeOH, 10.0 mM, 2 steps): 32%

Cyclo(Leu-GOx-Gly-Trp(Boc))
ring closure, isolated yield ([3]; amide bond, 12-membered ring, DEPBT/DIPEA, DMF, 1.0 mM, with chain assembly): 39%

Cyclo(Met-Ala-Trp-GOx-Gly-Leu)
ring closure, yield after HPLC ([4]; amide bond, 18-membered ring, DEPBT/DIPEA, DMF, 1.0 mM, with chain assembly): 7%

Cyclo(Ser-Met-Ala-Trp-GOx-Gly-Leu)
ring closure, yield after HPLC ([4]; amide bond, 21-membered ring, DEPBT/DIPEA, DMF, 1.0 mM, with chain assembly): 13%

Cyclo(Trp-Leu-AOx-Gly)
ring closure, isolated yield [3, 5]: 49% and 50%

Cyclo(Trp-Leu-GOx-Gly)
ring closure, isolated yield ([3]; amide bond, 12-membered ring, DEPBT/DIEA, DMF, 1.0 mM): 65%

Cyclo(Trp-Leu-Gly-Gly)
ring closure, isolated yield ([3]; amide bond, 12-membered ring, PyBOP/DIEA, DMF, 1.0 mM): 15%

Cyclo-((D)Pro-Leu-GAz(Boc)-Gly)
ring closure, isolated yield [3, 5]: 79%

Cyclo-(Leu-Tyr(^tBu)-Val-GAz(Boc)-Thr(^tBu)-Phe)
ring closure, isolated yield ([3]; amide bond, 18-membered ring, DEPBT/DIPEA, DMF, 5.0 mM): 57%

Cyclo-(Phe-Glu(^tBu)-GAz(Boc)-Thr(^tBu)-Gly)
ring closure, isolated yield ([3]; amide bond, 15-membered ring, DEPBT/DIPEA, DMF, 5.0 mM): 73%
